Measurements published in patent US20240408175A1, “BMP9 OR AN AGONIST THEREOF AND ITS USES RELATED TO REDUCING METASTASIS OF CANCER” (THE UAB RESEARCH FOUNDATION, priority 2021, published 2024).

Columns and labels:
Type in all cases: cell-based, human
SOX2 = SOX2 expression by Western blot / qRT-PCR in cancer cells
Procedure: Lysate and RNA preparation: 100,000-300,000 cells were seeded in a poly-HEMA coated 6-well plate for indicated times in full serum unless indicated otherwise. Cells were collected by centrifugation and lysed with trizol for RNA extraction or direct 2× lysis buffer for protein lysates.
Xenograft data were analyzed using parametric statistics as described in the legends. Survival curves were analyzed with log-rank statistics. In vitro experiments were analyzed using parametric statistics (ANOVA global test with Dunnett's/Sidak multiple comparison test as post-hoc tests as applicable and described in legend) and presented as the mean±SEM. All real time PCR's are relative semi quantitative RT-PCR's (hereby referred to as qRT-PCR) and are a combined quantitation of a minimum of 3 independent biological trials assayed in triplicate with biological replicates represented as individual scatter dots in the graphs or as indicated in legends. In all cases, statistical significance was set at a threshold of p<0.05. All statistical analyses were conducted with GraphPad Prism Software Ver. 9.0 and specific statistical test information described in figure legends.

SOX2 promoter = experiment: Chromatin immunoprecipitation (ChIP) at SOX2 promoter regions
Procedure: ChIP was carried out using a modified version of a previously described protocol (Medeiros et al., 2009). Cells were grown to 80% confluency in 150 mm culture dishes. Cells were fixed at room temperature in 1% Paraformaldehyde solution (dilute 8% PFA in serum free media to get 1%) and rocked for 10 minutes. 10×Glycine was added to the plate and allowed to sit for 5 minutes at room temperature. Cells were scraped down and cell suspension were transferred to a cold centrifuge tube for centrifugation at 720 RCF at 4° C. for 10 minutes. Cells were rinsed with 1X Phosphate buffer saline and centrifugation repeated. Cell pellet was next resuspended in lysis buffers described in (Medeiros et al., 2009) to obtain nuclei pellet. This was followed by chromatin sonication, using QSonica sonicator (model CL-188) for four cycles (30% amplitude for 15 secs ON and 30 secs OFF) to obtain DNA fragments with a length from 150 to 300 bp. 1/10th of the supernatant was stored as input control. ChIP was performed using Protein A magnetic beads (Dynabeads, Invitrogen #10001D) to couple […] ChIP-grade antibodies for SMAD1, SMAD3, H3K27me3, H3K4me3, or rabbit IgG antibody overnight at 4 °C. DNA was purified using the PureLink Quick PCR Purification kit (Thermo Fisher Cat #: K310001) and enrichment of DNA fragments analyzed via relative quantitative RT-PCR (qPCR) using ChIP primers (see Table 2) to specific locations. Negative and positive control regions were included in all analysis.

[1] = system: SOX2 promoter methylation; experiment: Methylation-specific qPCR of SOX2 promoter; conditions: PA1, rhBMP9 24 h
Procedure: Genomic DNA was extracted, and bisulfite conversion was performed on 500 ng of gDNA using the MethylAmp DNA modification kit according to manufacturer's instructions. Relative quantitative RT-PCR (qPCR) was performed with methylation-specific and unmethylation-specific primers (see Table 3).

HEY-T30 cells = experiment: Flow cytometry, Annexin V / PI apoptosis; conditions: 3D, 48 hours; 10 nM BMP9, 300 nM paclitaxel or combination
Procedure: 700,000 cells were seeded in 60 mm poly-hema coated culture dishes, followed by incubation with 300 nM paclitaxel and 10 nM BMP9 alone or in simultaneous combination for 48 hours. Cells were centrifuged and resuspended in 1×binding buffer, followed by incubation with Annexin V and PI according to the manufacturer's procedure manual. The stained cell suspension was added to FACS tubes containing 200 μl 1×binding buffer and measured by BD LSRFortessa flow cytometer. The data were analyzed using BD FACSDiva (Becton Dickinson, NJ, USA) software. Annexin V-positive and PI-negative cells were considered to be in the early apoptotic phase, Annexin V-negative and PI-positive cells were considered to be in the necrosis phase, cells having positive staining for both Annexin-V and PI were considered to undergo late apoptosis and cells negative for Annexin V and PI were considered to be live cells.

Substance: BMP9: recombinant human bone morphogenetic protein 9 (BMP9/GDF2), TGF-β family ligand
- SOX2 expression in other cancer types (SOX2; A549, BON-1, H727 cells, 24 hours): downregulated
- SOX2 in patient ascites-derived tumor cells (SOX2; EOC15 and AF68, anchorage-independent, 48 hours): downregulated
- anchorage-independence-induced increases in SOX2 (SOX2; OVCAR4, OVCA420, OVCA433 cells, 3D): effectively suppressed
- dose-response of SOX2 protein (SOX2; PA1 and OVCAR3, indicated doses, 24 h): dose-dependent repression
- SOX2 by qRT-PCR in anchorage-independent conditions (SOX2; PA1 cells, 3D, 24 hrs): downregulation
- reduction in SOX2 expression under attached growth conditions (SOX2; several cell lines incl. OVCAR3 and SKOV3, 10 nM, 24 hours): significant
- SMAD1 binding at sites p1 and p6 (ChIP) (SOX2 promoter; 1 h treatment): significant enrichment
- histone H3K27me3 on the SOX2 promoter (ChIP) (SOX2 promoter; PA1, 1 hour rhBMP9): significantly enriched
- increase in SOX2 promoter methylation compared with control cells [1]: 2.53
- apoptosis in cells (HEY-T30 cells): 6.8%
